Experimental findings from patent US20020004519A1, “METHOD FOR REDUCING CHLORIDE SECETION BY INTESTINAL EPITHLIAL CELLS IN SITU” (priority 1998, published 2002) are described below.

In one assay the test system is T84 cells. As to the kind of experiment: Electrogenic Cl- secretion (short circuit current, Isc) in confluent T84 monolayers. The assay is classed as cell-based, human. To be noted: for Inhibition of cAMP and Ca++ elicited Cl- secretion: comparison of compounds tested.
Assay [1] relates to cAMP- and Ca++-sensitive basolateral K+ channels of T84 cells. As to the kind of experiment: Basolateral K+ conductance in T84 monolayers permeabilized apically with amphotericin B. The conditions noted are these: for Time course of K+ transport after treatment with forskolin and carbachol: forskolin 10 μM (cAMP agonist), carbachol 100 μM (Ca++ agonist). Format: cell-based, human. Here is the method: Selective mebrane Permeabilization and Measurement of Potassium Conductance of the Basolateral Membrane. The basolateral potassium conductance was measured using the technique developed by Dawson and co-workers. A potassium gradient (mucosal to serosal) was first established across the monolayer using asymmetric mucosal and serosal buffers containing K^+ as the sole permeant ion. The addition of amphotericin B (20 μM) to the mucosal reservoir forms conductive pores in the apical membrane, and thus removes all resistance to transepithelial potassium movement across this membrane. Thus, under the conditions of the experiment, in which the monolayer is short circuited (i.e., voltage-clamped at zero potential) and the transepithehal potassium gradient is constant, the amphotericin-dependent Isc becomes a measure of the rate of the transepithelial potassium flux across basolateral membranes. Changes in short circuit current (Isc), then represent changes in basolateral K^+ conductances (gK). Isc and K^+ conductances were measured using calomel electrodes, 3M KCI-agar bridges, and a voltage clamp (University of Iowa, Iowa City). To generate a voltage-current channel relationships, currents were elicited by 1 sec test potentials from −80 to +80 in 10 mV increments in the asymmetrical high K^+ gluconate solution. Calculation of basolateral membrane K^+ permeability: Membrane permeabilities were calculated according to the formula:
^pK=(cm/s)=^JK(mM/cm^2·s)/Δ[K^+](mM/cm^3)
where Δ [K^+] is equal to the difference in K^+ concentration (135 mM) between the asymmetric apical and basolateral bathing solutions. Maximal Isc values were converted into K^+ fluxes by dividing by the Faraday constant F (96,500 coulombs/mol) as previously described (Huflejt et al., J. Clin. Invest. 93: 1900-1910 (1994)).
Basolateral K+ transport was examined in T84 monolayers permeabilized apically by pretreatment with amphotericin B. Apical and basolateral buffers contained K+ as the sole permeant ion. All studies were performed with a 135 mM basolaterally directed K+ gradient. This method has been utilized previously to examine both Cl− and K+ transport in T84 cells and HT29-Cl0.16E cells. Briefly, ion conductances in the luminal or basolateral membranes of confluent T84 cell monolayers can be assessed separately by selectively permeabilizing the apical or basolateral membrane using the ionophore amphotericin B. This artificially removes all electrical resistance to ion transport across the plasma membrane containing pores formed by amphotericin B. As a result, the intact contralateral plasma membrane becomes rate limiting for transepithelial ion transport. Agonist-dependent changes in ion conductances can be assessed directly either as transepithelial short circuit current (Isc) in the presence of established ion gradients, or as transepithelial conductance (G) in the presence of established transepithelial potentials.

Assay [2] deals with cholera toxin-induced intestinal fluid secretion. Format: in vivo, Balb/C mice.
The test system of assay [3] is basolateral NaK2Cl cotransporters of T84 cells. As to the kind of experiment: Bumetanide-sensitive 86Rb uptake in T84 monolayers. The assay is classed as cell-based, human. As to the method: Confluent monolayers on 5 cm^2 Transwell inserts were incubated for 30 minutes in HBSS at 37° C. […] Monolayers were cut from their inserts, placed into scintillation vials, and counted using standard methods.

In another assay the test system is rabbit colonic mucosa. As to the kind of experiment: Ussing chamber studies using rabbit colonic mucosa. The conditions noted are these: 30 μM; forskolin 10 μM. As to the method: 4 male, New Zealand rabbits (2.5 kg) were anesthetized by an intravenous injection of pentobarbital (0.5 ml/kg). A 15 cm length of distal colon was removed and opened longitudinally. […] The volume of fluid on each side of the mucosa was 7 ml. Potential difference and Isc were monitored continuously and registered every 10 minutes.

Assay [4] deals with basolateral K+ channels of T84 cells. As to the kind of experiment: 86Rb efflux from T84 monolayers as indicator of basolateral K+ channel activity. Format: cell-based, human. As to the method: J. Physiol (Cell Physiol. 28):[…]-[…] (1990). […] One ml samples were obtained and replaced from the basolateral reservoir. […] Finally, the cell monolayer was rinsed, cut with its support from the polystyrene ring, and the residual cell-associated radioactivity was determined. Monolayers were maintained at 37° C. in room air throughout the study. ^86Rb was counted by scintillation counting and normalized to percent total uptake as previously described ([…], et al, Am. J. Physiol. (Cell Physiol. 28):[…]-[…] (1990).

In assay [5] the test system is apical membrane Cl- channels of T84 cells. As to the kind of experiment: 125I efflux from T84 monolayers as indicator of apical Cl- channel activity. The assay is classed as cell-based, human. Here is the method: J. Physiol. (Cell Physiol. 28):[…]-[…] (1990). […] After washing twice in fresh HBSS, 0.5 ml samples were obtained every two min from the apical reservoir and replaced with fresh HBSS. […] Finally, the cell monolayer was rinsed, cut with its support from the polystyrene ring, and the residual cell-associated radioactivity was determined. Monolayers were maintained at 37° C. in room air throughout the study. ^125I was counted by gamma counting and normalized to percent total uptake as previously described ([…], et al, Am. J. Physiol. (Cell Physiol 28):[…]-[…] (1990).

The test system is the same in assay [6]. As to the kind of experiment: Apical Cl- conductance in T84 monolayers permeabilized basolaterally with amphotericin B. To be noted: forskolin 10 μM; symmetrical Cl- 142 mM. Format: cell-based, human.
Setting [7] is: 33 μM during final 30 min of preincubation.

With `[Ba+2].[Cl-].[Cl-]` [BaCl2], in the assay on T84 cells, the “Cl- secretory response (Isc as percentage of control) to the Ca++-dependent agonist carbachol” value was “no apparent affect” and the “Cl- secretory response (Isc as percentage of control) to the cAMP mediated agonist VIP” value was “strongly inhibited”. The “Effect on K+ transport induced by subsequent addition of carbachol” value in assay [1] (carbachol 100 μM, same monolayers, BaCl2 3 mM) is reported as “no detectable effect”. Also, the “Inhibition of the cAMP-sensitive IK elicited by forskolin” value in assay [1] (forskolin 10 μM, BaCl2 3 mM in basolateral reservoirs) is listed as “greater than 70%”.
For `Clc1ccc(COC(Cn2ccnc2)c2ccc(Cl)cc2Cl)c(Cl)c1` (centres unmarked) [miconazole], the “Inhibition of cAMP and Ca++ elicited Cl- secretion” value with T84 cells is reported as “effective at inhibiting chloride secretion”.
charybdotoxin: in the assay on T84 cells, the “Cl- secretory response (Isc as percentage of control) to the Ca++-dependent agonist carbachol” value is given as “strongly inhibited” and the “Cl- secretory response (Isc as percentage of control) to the cAMP mediated agonist VIP” value was “minimal affects”. Moreover, the “Inhibition of the carbachol-induced Ca++ IK” value in assay [1] (carbachol first, pretreatment with charybdotoxin 100 nM) came out at 50%. For the same molecule, the “Effect on K+ transport induced by subsequent addition of forskolin” value in assay [1] (charybdotoxin 100 nM) is listed as “no detectable effect”.
On to `Clc1ccc(COC(Cn2ccnc2)c2ccc(Cl)cc2Cl)cc1` (centres unmarked) [econazole], for which the “Inhibition of cAMP and Ca++ elicited Cl- secretion” value in the assay on T84 cells is given as “effective at inhibiting chloride secretion”.
Take `OC(c1ccccc1)(c1ccccc1)c1ccccc1Cl` [2-chlorophenyl-bis-phenyl methanol]: in the assay on T84 cells, the “Inhibition of cAMP and Ca++ elicited Cl- secretion” value is reported as “effective at inhibiting chloride secretion”. In addition, in assay [1], the “Time course of K+ transport after treatment with forskolin and carbachol” value was “Nearly identical results”.
Usually IC50 stands for the concentration that gives 50% inhibition. On to `Clc1ccccc1C(c1ccccc1)(c1ccccc1)n1ccnc1` [clotrimazole], for which, in the assay on T84 cells, the “Cl- secretory response (Isc as percentage of control) to the Ca++-dependent agonist carbachol” value was “inhibited”; the “Cl- secretory response (Isc as percentage of control) to the cAMP mediated agonist VIP” value was “inhibited”; the “Inhibition of cAMP and Ca++ elicited Cl- secretion” value is reported as “most potent inhibitor tested”. For the same molecule, the “Secretory response to agonists of sequential steps in the cAMP signalling cascade” value in the assay on T84 cells (33 μM preincubation, 5 μM VIP, 10 μM forskolin or 3 mM 8Br-cAMP) is “inhibited”. In the assay on T84 cells (33 μM pretreatment, carbachol 100 μM, thapsigargin 5 μM or ionomycin 10 μM), the “Cl- secretory response to Ca++-dependent agonists” value is “inhibited strongly”. Moreover, the IC50 with T84 cells (Homo sapiens, T84, read-out: IC50 for inhibiting the secretory response to E. Coli heat-stabile toxin) turned out to be 15 µM. Also, the “Reversibility of inhibition of Cl- secretion” value with T84 cells (after 60 min recovery in the presence of 0.01 mg/ml bovine serum albumin, n=4) was 96±2%. In addition, in the assay with T84 cells (basolateral versus apical application), the “Apparent potency of inhibition at a fixed time point by side of application” value was “greater when applied basolaterally than apically”. Also, the “Potentiation of the Cl- secretory responses to either agonist at low doses” value in the assay with T84 cells (low doses (=10^-7 or less), VIP or carbachol) is on record as 5-10%. Moreover, the “Reduction of intestinal fluid secretion induced by cholera toxin” value in assay [2] (5 hours) came to 86%. The “Intestinal secretion in the absence of cholera toxin” value in assay [2] (mouse, in vivo) was “no effect”. Further, the “Reduction of the total amount of 86Rb uptake” value in assay [3] (33 μM for 30 min, VIP, mean±SEM, n=6) is reported as 53.6±5.8%. Also, the “Effect on the fractional component of 86Rb uptake that was bumetanide-sensitive” value in assay [3] (33 μM for 30 min, bumetanide 10 μM) is “no effect”. The “Bumetanide-sensitive fraction of 86Rb uptake” value in assay [3] (0.5 h, 33 µM) is on record as 88+3.2 % total uptake. The “Time course of K+ transport after treatment with forskolin and carbachol” value in assay [1] is “significantly inhibited”. Besides, the “Time course of forskolin induced Isc” value in the assay on rabbit colonic mucosa was “inhibited strongly”. Besides, the “86Rb loading of the cells” value in assay [4] (setting [7]) is listed as “did not alter”. The “Reduction of the rate constant for VIP-stimulated 86Rb efflux” value in assay [4] (33 μM, VIP 5 μM) is 87%. Also, the “Baseline and Ca++ stimulated 86RB efflux” value in assay [4] (T84 cells in the presence of VIP or thapsigargin, compared to cells not treated, FIG. 2) is “significantly inhibited”. Besides, the “Rate constant for VIP-stimulated 86Rb efflux” value in assay [4] (monolayers treated with clotrimazole 33 μM, VIP 5 μM, n=2 in triplicate, untreated 0.0465) was found to be 0.0062 % uptake/minute. In addition, in assay [4] (monolayers treated with clotrimazole 33 μM, thapsigargin 5 μM, n=2, untreated 0.048), the “Rate constant for thapsigargin-stimulated 86Rb efflux” value is 0.011 % uptake/minute. The “125I loading of the cells” value in assay [5] (setting [7]) is listed as “did not alter”. Also, the “Time course of 125I efflux from monolayers treated with VIP” value in assay [5] (33 μM pretreatment, VIP) is “little or no effect”. Also, the “Rate constant for 125I efflux” value in assay [5] (monolayers treated with clotrimazole (33 μM), VIP, n=2 in duplicate, untreated 0.0645) was 0.0637 % uptake/minute. Also, the “Forskolin- or thapsigargin-stimulated Cl- conductances” value in assay [6] is “no detectable effect”.
Take `CC(=O)N1CCN(c2ccc(OCC3COC(Cn4ccnc4)(c4ccc(Cl)cc4Cl)O3)cc2)CC1` (centres unmarked) [ketoconazole]: the “Inhibition of cAMP and Ca++ elicited Cl- secretion” value in the assay on T84 cells is on record as “effective at inhibiting chloride secretion”.
